# Where two headings read alike, the source gives them in different places.
# Columns and labels:
# [1] = tested on: P2X3; assay: Mean pIC50s at P2X3 from Carter et al (literature); assay type: cell-based
# [2] = tested on: P2X3; settings: oxygen-linked analogs; from Carter et al, Bioorg Med Chem Lett 2009; cited from earlier work
# [3] = target: T1, human P2X2/3 receptor (heteromeric P2X2/3 channels) (Homo sapiens, UniProt P56373+Q9UBL9); assay: FlexStation calcium fluorescence assay, heteromeric P2X2/3 channels (1321N1-hP2X2/3 cells); assay type: cell-based; settings: agonist 3 μM ATP, highest concentration tested 10 μM, read-out: Average pIC50 P2X2/3 (converted)
# T1 construct: expressed in transfected cells; host or cells: 1321N1 human astrocytoma cells (1321N1-hP2X2/3)
# T1 sequence (P56373 1-397): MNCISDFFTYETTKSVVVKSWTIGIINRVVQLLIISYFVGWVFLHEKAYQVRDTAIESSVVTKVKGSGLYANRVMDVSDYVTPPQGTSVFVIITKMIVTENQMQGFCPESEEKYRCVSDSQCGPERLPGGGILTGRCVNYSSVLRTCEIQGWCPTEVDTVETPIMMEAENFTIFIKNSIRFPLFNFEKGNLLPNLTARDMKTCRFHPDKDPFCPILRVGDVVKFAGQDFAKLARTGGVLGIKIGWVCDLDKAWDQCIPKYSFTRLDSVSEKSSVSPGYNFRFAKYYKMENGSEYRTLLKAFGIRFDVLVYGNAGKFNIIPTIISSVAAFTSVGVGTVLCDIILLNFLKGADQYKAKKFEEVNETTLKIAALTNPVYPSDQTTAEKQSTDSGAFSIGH
# T1 sequence (Q9UBL9 1-471): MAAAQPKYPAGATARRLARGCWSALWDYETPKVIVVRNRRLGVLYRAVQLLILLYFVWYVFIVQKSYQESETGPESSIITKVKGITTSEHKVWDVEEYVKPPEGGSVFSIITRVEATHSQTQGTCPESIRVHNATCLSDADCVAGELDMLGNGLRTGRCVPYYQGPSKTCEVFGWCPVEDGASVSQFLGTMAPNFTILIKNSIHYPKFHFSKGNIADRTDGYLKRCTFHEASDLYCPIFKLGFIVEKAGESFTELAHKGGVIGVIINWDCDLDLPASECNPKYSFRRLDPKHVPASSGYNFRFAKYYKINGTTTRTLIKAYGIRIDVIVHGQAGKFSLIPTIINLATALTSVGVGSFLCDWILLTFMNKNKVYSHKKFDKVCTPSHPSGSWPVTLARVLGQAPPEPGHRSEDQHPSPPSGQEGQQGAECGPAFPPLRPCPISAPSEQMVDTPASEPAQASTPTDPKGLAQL
# Procedure: (§1) 1321N1 human astrocytoma and HEK293 human embryonic kidney cells were stably transfected with human P2X2 and P2X3 receptor subunits to form heteromeric P2X2/3 channels and passaged in flasks. Additionally, HEK293 cells were stably transfected with human P2X3 receptor subunits to form homomeric P2X3 channels.
# (§2) Approximately 24 hours before the FlexStation calcium fluorescence experiment, cells were released from their flasks, centrifuged and re-suspended in nutrient medium. The cells were aliquoted into black-wall, clear-bottom 96 well plates at a density of 25,000 cells per well and incubated overnight in a humidified, CO2-enriched (5%) atmosphere at 37° C.
# (§3) On the day of the experiment, cells were washed with assay buffer (calcium- and magnesium-free Hank's balanced salt solution, 20 mM HEPES, 2 mM CaCl2; AB) and loaded with 4 μM Fluo-4 (P2X2/3) or Calcium 6 (Molecular Devices, according to manufacturer's instructions; P2X3) calcium-sensitive fluorescent dye in 100 μL AB.
# (§4) After 1 hour of dye loading at 37° C., 1321N1-hP2X2/3 cells were washed two times with AB and test compound or vehicle added to each well in a total volume of 150 μL AB. HEK-hP2X3 cells were not washed because the Calcium 6 dye kit includes an extracellular dye that quenches unabsorbed Calcium 6 dye; test compound or vehicle were added directly to the assay plates to achieve the appropriate concentration of test compound in a total volume of 150 μL AB.
# (§5) After 20 minutes incubation at RT and protected from light, the assay plates were loaded into the FlexStation microplate reader and baseline fluorescence measured with an excitation wavelength of 485 nm and emission wavelength readings centered at 525 nm (515 nm cut off).
# (§6) The agonist was dispensed by the FlexStation during fluorescence measurement to construct agonist activation and antagonist inhibition curves. The final agonist concentration for inhibition was 1 μM α,β-meATP for P2X3 and 3 μM ATP for P2X2/3. Peak fluorescence was measured and curves generated using a four parameter nonlinear regression equation.
# [4] = target: T2, human P2X3 receptor (homomeric P2X3 channels) (Homo sapiens, UniProt P56373); assay: FlexStation calcium fluorescence assay, homomeric P2X3 channels (HEK-hP2X3 cells); assay type: cell-based; settings: for IC50: HEK293 cells stably transfected with human P2X3, agonist 1 μM α,β-meATP, highest concentration tested 10 μM, read-out: Average pIC50 P2X3 (converted); for Selectivity P2X3/P2X2/3: potency ratio P2X3 over P2X2/3 from pIC50s
# T2 construct: expressed in transfected cells; host or cells: HEK293 human embryonic kidney cells (HEK-hP2X3)
# T2 sequence (P56373 1-397): T1 sequence (P56373 1-397)
# Procedure: as §1, §2, §3, §4, §5, §6
SMILES,"Selectivity, X = O [1]","P2X3 mean pIC50, X = O [2]",IC50 [3],IC50 [4],Selectivity P2X3/P2X2/3 [4],"Selectivity, X = O ([1]; potency ratio P2X3 over P2X2/3 from the cited pIC50s)"
"COc1cc(C(C)C)c(Oc2cnc(N)nc2N)cc1I [B, X = O]",8,8.0,–,–,–,–
"COc1cc(C(C)C)c(Oc2cnc(N)nc2N)cc1S(C)(=O)=O [C, X = O]",10,7.0,–,–,–,–
C#Cc1cc(Sc2cnc(N)nc2N)c(C(C)C)nc1OC [Compound 29],–,–,200 nM,50.1 nM,3.9,–
COc1cc(Nc2cnc(N)nc2N)c(C(C)C)cc1OC [Compound 30],–,–,1580 nM,63.1 nM,28,–
COc1nc(C(C)C)c(Sc2cnc(N)nc2N)cc1SC(F)(F)F [Compound 31],–,–,> 10000 nM,3980 nM,>2.5,–
COc1nc(C(C)C)c(Nc2cnc(N)nc2N)cc1Cl [Compound 32],–,–,398 nM,10 nM,34,–
COc1nc(C(C)C)c(Oc2cnc(N)nc2N)cc1Cl [Compound 33],–,–,794 nM,25.1 nM,26,–
COc1nc(C(C)C)c(Sc2cnc(N)nc2N)cc1C(F)(F)F [Compound 34],–,–,6310 nM,794 nM,8.3,–
COc1nc(C(C)C)c(Nc2cnc(N)nc2N)cc1C(F)(F)F [Compound 35],–,–,7940 nM,39.8 nM,198,–
COc1nc(C(C)C)c(Nc2cnc(N)nc2N)cc1S(C)(=O)=O [Compound 36],–,–,> 10000 nM,25.1 nM,>370,–
COc1cc(C(C)C)c(Nc2cnc(N)nc2N)cc1S(C)(=O)=O [Compound 37],–,–,> 10000 nM,126 nM,>73,–
COc1nc(C(C)C)c(Sc2cnc(N)nc2N)cc1Cl [Compound 38],–,–,> 10000 nM,200 nM,>48,–
COc1cc(C(C)C)c(Nc2cnc(N)nc2N)cc1Cl [Compound 39],–,–,5010 nM,25.1 nM,208,–
COc1cc(C(C)C)c(Nc2cnc(N)nc2N)cc1C(F)(F)F [Compound 40],–,–,> 10000 nM,79.4 nM,>123,–
COc1nc(C(C)C)c(Oc2cnc(N)nc2N)cc1SC [Compound 41],–,–,501 nM,12.6 nM,41,–
COc1nc(C(C)C)c(Oc2cnc(N)nc2N)cc1[S+](C)[O-] (stereo not shown) [Compound 42],–,–,> 10000 nM,316 nM,>33,–
COc1nc(C(C)C)c(Oc2cnc(N)nc2N)cc1S(C)(=N)=O (stereo not shown) [Compound 43],–,–,> 10000 nM,3160 nM,>3.4,–
COc1cc(Nc2cnc(N)nc2N)c(C(C)C)nc1OC [Compound 44],–,–,2000 nM,10 nM,225,–
COc1nc(C(C)C)c(Oc2cnc(N)nc2N)nc1N(C)C [Compound 45],–,–,> 10000 nM,1580 nM,>6.0,–
COc1nc(C(C)C)c(Oc2cnc(N)nc2N)nc1C(F)(F)F [Compound 46],–,–,1000 nM,100 nM,10,–
COc1nc(C(C)C)c(Oc2cnc(N)nc2N)cc1SC(F)(F)F [Compound 47],–,–,1260 nM,631 nM,2.1,–
"COc1cc(C(C)C)c(Oc2cnc(N)nc2N)cc1Cl [D, X = O]",–,7.6,–,–,–,4
"COc1cc(Oc2cnc(N)nc2N)c(C(C)C)cc1OC [Row A, X = O, reference compound]",–,7.6,–,–,–,–

# Source: patent US11230532B2, “Pyrimidines and variants thereof, and uses therefor” (Afferent Pharmaceuticals Inc., priority 2016, dated 2022)
